Results taken from publication PMC7956476, “Quinoline Functionalized Schiff Base Silver (I) Complexes: Interactions with Biomolecules and In Vitro Cytotoxicity, Antioxidant and Antimicrobial Activities” (Molecules, 2021).
Read-outs that look alike come from different tables or passages of the source.

Assays:
CT-DNA-EB adduct = test: Fluorescence competitive displacement of ethidium bromide from CT-DNA; type: binding, calf; conditions: for CT-DNA-EB-Complex Ksv (M^−1) × 10^4: Stern–Volmer quenching constant, 25 °C; for CT-DNA-EB-Complex Kq (M^−1S^−1) × 10^12: bimolecular quenching constant, Ksv = Kqτo, τo 10^−8 s; for CT-DNA-EB-Complex Kbin (M^−1) × 10^5: binding constant from double-logarithmic plot
Description: The Stern–Volmer plot approach was used based on the fact that the Stern–Volmer plots for Q1–Q15 (Figure 5c), were linear an indication of only one mechanism for the quenching fluorescence, i.e., either dynamic or static. […] (1) Ksv=Kqτo where Ksv, Kq, and τo represent Stern–Volmer quenching constant, bimolecular quenching constant, and an average lifetime of the fluorophore in the absence of the quencher, respectively. τₒ normally takes about 10^−8 s in biomacromolecules.
The double-logarithmic Equation (2) was used in determining the binding constant of complexes Q1–Q15 and CT-DNA. (2) logFo−F/F=logKb+n logQ
A competitive displacement study was carried out using fluorescence spectroscopy between CT-DNA pre-treated with ethidium bromide (EB) and complexes Q1–Q15 to establish the complexes′ actual mode of binding to CT-DNA. […] The competitive luminescence displacement assay was done using a modified method. Pre-treated 15 µM solution of EB with 15 µM of CT-DNA was prepared in a phosphate buffer of pH 7.2 and left to equilibrate for 30 min. Keeping CT-DNA-EB concentrations constant, different concentrations (0–20 µM) of the complexes were added at 8 min incubation interval at room temperature. The fluorescence quenching ability of CT-DNA bound EB by the complexes were recorded in the wavelength range of 530–700 nm with an excitation wavelength at 525 nm at 25 °C. (6) Fo/F=1+KSVQ=1+KqτoQ
A Stern–Volmer (Equation (6)) was used to evaluate the CT-DNA-EB fluorescence quenching of the complexes. Where Fo and F denote the relative fluorescence intensities of CT-DNA in the absence and presence of the quencher, Ksv, Stern–Volmer quenching constant, [Q], quencher concentration, Kq, bimolecular quenching constant and τo, average lifetime of the fluorophore in the absence of the quencher which is typically equal to 10^−8 s in biomacromolecules.

[1] = system: Staphylococcus aureus ATCC 700699 (methicillin-resistant); test: Minimum inhibitory concentration (MIC), spotting on Müeller–Hinton agar; type: cell-based; conditions: Gram + Ve; methicillin-resistant S. aureus; 37 °C, 18 h
Description: (§1) Sterilized Nutrient agar medium was first prepared by dissolving 38 g of Müeller–Hinton agar (MHA) (Biolab, Midrand, Africa) in distilled water (1 L). […] The cooled Agar medium was poured in Petri dishes while ensuring a uniform 4 mm depth of the medium and cooling further to ambient temperature.
(§2) These bacteria were inoculated in a sterilized Nutrient Broth (NB) (Biolab, Midrand, Africa) through streak plate technique and incubated at 37 °C for 18 h. The nutrient broth was sterilized by dissolving 1.3 g in distilled water (100 mL). Ca. 10 mL of the nutrient broth was transferred into a cotton wool-plugged test tubes and wrapped with an aluminium foil. […] Following this was the isolation of a single colony of the bacteria and inoculated into a 10 mL sterile NB which was then incubated in a shaking incubator at 37 °C for 18 h. Each of the bacteria strain concentrations was adjusted with sterile distilled water to get a final concentration of 1.5 × 10^8 cfu/mL, i.e., 0.5 Mc Farland’s Standard using a densitometer (Mc Farland Latvia). The bacteria were lawn inoculated on the set MHA Petri dishes using a sterile cotton swab. Screening of L1–L5 and Q1–Q15 for antibacterial activity was first carried out by spotting 5 µL of their solution (prepared from the dissolution of 1000 µg of the L1–L5 and Q1–Q15 in 1 mL dimethyl sulfoxide (DMSO)) on an MHA petri dish and incubated at 37 °C for 18 h. The antibacterial activity was determined by looking out for a clear zone at the spotting point.

[2] = system: Escherichia coli ATCC 25922; test: as above; type: cell-based; conditions: Gram − Ve, E. coli, 37 °C, 18 h
Description: as §1, §2

[3] = system: Salmonella typhimurium ATCC 14026; test: as above; type: cell-based; conditions: Gram − Ve; S. typhi; 37 °C, 18 h
Description: as §1, §2

[4] = system: Staphylococcus aureus ATCC 25923; test: as above; type: cell-based; conditions: Gram + Ve, S. aureus, 37 °C, 18 h
Description: as §1, §2

[5] = system: Pseudomonas aeruginosa ATCC 27853; test: as above; type: cell-based; conditions: Gram − Ve; P. aeruginosa; 37 °C, 18 h
Description: as §1, §2

[6] = target: bovine serum albumin (BSA) (Bos taurus, UniProt P02769); test: Albumin binding by absorption spectroscopy titration
bovine serum albumin (BSA), sequence (P02769 25-607): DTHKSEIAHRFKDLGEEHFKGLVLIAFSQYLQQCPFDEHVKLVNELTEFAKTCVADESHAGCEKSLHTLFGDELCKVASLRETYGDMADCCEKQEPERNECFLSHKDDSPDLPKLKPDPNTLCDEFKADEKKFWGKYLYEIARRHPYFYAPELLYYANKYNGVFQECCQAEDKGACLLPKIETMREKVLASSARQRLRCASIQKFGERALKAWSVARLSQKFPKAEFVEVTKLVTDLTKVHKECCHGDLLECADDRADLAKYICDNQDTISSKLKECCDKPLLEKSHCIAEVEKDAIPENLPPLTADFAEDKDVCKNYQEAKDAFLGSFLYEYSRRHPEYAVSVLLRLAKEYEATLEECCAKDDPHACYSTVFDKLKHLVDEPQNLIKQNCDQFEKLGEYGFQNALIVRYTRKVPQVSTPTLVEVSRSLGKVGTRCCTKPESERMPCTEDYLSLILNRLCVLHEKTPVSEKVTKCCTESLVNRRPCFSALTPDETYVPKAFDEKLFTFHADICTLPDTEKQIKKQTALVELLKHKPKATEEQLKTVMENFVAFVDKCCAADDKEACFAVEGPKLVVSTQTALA
Description: Bovine serum albumin (BSA) was used as the protein standard in this study because of its close resemblance to human serum albumin (HSA), its stability, high solubility, neutrality in many biochemical reactions and low cost. In protein binding study, absorption spectroscopy titration is a known method used in studying the conformational changes in proteins, and this protein is characterized by an intense absorbance peak at 280 nm depicting the microenvironment around tyrosine and tryptophan residue polarity.
The absorbance assay of albumin binding is a very simple method used in identifying the conformational changes in protein. […] A stock solution of bovine serum albumin (BSA) was prepared by dissolving an appropriate amount of BSA in phosphate buffer saline solution (pH 7.2) under constant stirring for 1 h at 25 °C. It was kept at 4 °C and used within four days. […] The stock solution of the complex was prepared by dissolving 1 mmol of the complexes in DMSO. The absorption titration assay was done by adding different concentrations (0–10 µM) of the complexes to a constant BSA concentration (6 µM). The sample solution was incubated after each addition of the concentrations for 10 min at 25 °C before recording the absorbance at λmax 280 nm.

calf thymus DNA (CT-DNA) = test: CT-DNA electronic absorption titration (Wolfe–Shimer); type: binding
Description: The interaction of the L1–L5 and complexes Q1–Q15 with calf thymus-DNA was carried out in a Phosphate buffer saline solution pH 7.2 stored at 4 °C. The DNA stock solution was prepared by dissolving CT-DNA sodium salt in Phosphate buffer saline solution with continuous stirring overnight. It was filtered and stored at 4 °C and used within four days. […] A fixed amount of the L1–L5 and complexes Q1–Q15 (50 µM) were prepared by dissolving an appropriate amount in DMSO. […] Therefore, in all the experimental of the interaction of L1–L5 and complexes Q1–Q15 with biomolecules, the final concentration of DMSO in the incubation mixture was ~2% (v/v).
The binding modes of L1–L5 and complexes Q1–Q15 to CT-DNA were characterized through electronic absorption titration by varying concentrations of CT-DNA (0–30 µM) in phosphate buffer saline solution against fixed concentrations (20 µM) of L1–L5 and complexes Q1–Q15. […] The absorbance of CT-DNA is cancelled by adding equivalent amounts of CT-DNA to both the tested compounds and the reference solutions.

[7] = Ferric reducing antioxidant power (FRAP) assay; type: biochemical; conditions: done in triplicate
Description: Antioxidants are important in protecting the human body against damage by reactive oxygen species (ROS). Accumulation of ROS in the cells may lead to damage of the DNA, RNA, and proteins which subsequently leads to several physiological disorders such as cardiovascular disease, diabetes, rheumatism, atherosclerosis, cancer, aging and cell death. […] The free radical scavenging ability of all ligands and complexes in this study were investigated using ferric reducing antioxidant power (FRAP). In antioxidant studies, FRAP assay is often preferred because it is simple, fast, economical, and direct in antioxidant measurement. FRAP assay is based on the electron-donating ability of an antioxidant compound. This involves the reduction of a colorless Fe^3+ tripyridyltriazine complex (Fe^3+ (TPTZ)) to an intense blue-colored Fe^2+ tripyridyltriazine complex (Fe^2+ (TPTZ)) by the electron-donating antioxidants at low pH [69]. The reducing power is to determine the reductive ability of the test compounds.
Antioxidant activity studies of L1–L5 and Q1–Q15 were done using ferric reducing antioxidant power (FRAP) assay. The ferric reducing antioxidant power assay is often used to evaluate the ability of an antioxidant to donate an electron. […] The resulting mixture was incubated at 50 °C for 20 min, and 2.5 mL of 10% trichloroacetic acid was added to acidify the mixture. After that, 1 mL of the acidified mixture was added to 1 mL of distilled water and 0.5 mL of 0.1% FeCl3. The absorbance of the resulting solution was then measured at 700 nm. The antioxidant power of the compounds was expressed as a percentage of ferric reducing antioxidant power Ascorbic acid equivalent, as shown in Equation (4). (4) % FRAP =Absorbance of Absorbance of Sample/Absorbance of Ascorbic Acid ×100

[8] = intrinsic binding constant, absorption titration, PBS pH 7.2

Compound | CT-DNA-EB-Complex Ksv (M^−1) × 10^4 (CT-DNA-EB adduct; EB displacement) | CT-DNA-EB-Complex Kq (M^−1S^−1) × 10^12 (CT-DNA-EB adduct) | CT-DNA-EB-Complex Kbin (M^−1) × 10^5 (CT-DNA-EB adduct) | Minimum inhibitory concentration, MRSA [1] | Minimum inhibitory concentration, EC [2] | Minimum inhibitory concentration, ST [3] | Minimum inhibitory concentration, SA [4] | Minimum inhibitory concentration, PA [5] | Protein-Complex Kb (M^−1) × 10^4 ([6]; BSA absorption titration, 280 nm, 25 °C) | hypochromic shift in the absorption bands on addition of CT-DNA (calf thymus DNA (CT-DNA); absorption titration with CT-DNA) | CT-DNA-Cmp. Kb (M^−1) × 10^5 (calf thymus DNA (CT-DNA); [8]) | Antioxidant (IC50 mg/mL) FRAP [7] | Protein-Complex Kb (M^−1) × 10^4 [6] | CT-DNA-Cmp. Kb (M^−1) × 10^5 (calf thymus DNA (CT-DNA); pH 7.2) | MIC ([2]; Escherichia coli, ATCC25922, read-out: Minimum inhibitory concentration, EC) | MIC ([4]; Staphylococcus aureus, ATCC25923, read-out: Minimum inhibitory concentration, SA) | binding constant (Kbin) to CT-DNA (CT-DNA-EB adduct; as given in the text, EB displacement, double-logarithmic plot)
[Ag+].[O-][Cl+3]([O-])([O-])[O-] [AgClO4, silver perchlorate, reference compound] | 3.31 (M^−1) × 10^4 | 3.31 (M^−1S^−1) × 10^12 | 6.00 (M^−1) × 10^5 | 6.25 µg/mL | 25 µg/mL | 0.2 µg/mL | 3.125 µg/mL | 0.8 µg/mL | 4.82 (M^−1) × 10^4 | 23.64–50.86% | 3.30 (M^−1) × 10^5 | 0.88 ± 0.051 mg/mL | – | – | – | – | –
O=[N+]([O-])[O-].[Ag+] [AgNO3, silver nitrate, reference compound] | 3.12 (M^−1) × 10^4 | 3.12 (M^−1S^−1) × 10^12 | 4.50 (M^−1) × 10^5 | 0.2 µg/mL | 0.8 µg/mL | 1000 µg/mL | 3.125 µg/mL | 12.5 µg/mL | – | – | – | 1.43 ± 0.03 mg/mL | 4.49 (M^−1) × 10^4 | 3.00 (M^−1) × 10^5 | – | – | –
Fc1ccccc1/N=C/c1ccc2ccccc2n1 [Complex L1, (E)-N-(2-fluorophenyl)-1-(quinolin-2-yl)methanimine] | – | – | – | – | – | – | – | – | – | – | 1.38 (M^−1) × 10^5 | 22.42 ± 0.0048 mg/mL | – | – | 1000 µg/mL | 100 µg/mL | –
O=[N+]([O-])[O-].[Ag+].c1ccc2nc(-c3nc4ccccc4s3)ccc2c1.c1ccc2nc(-c3nc4ccccc4s3)ccc2c1 [Complex Q2, [Ag(L2)2]NO3] | 2.68 (M^−1) × 10^4 | 2.68 (M^−1S^−1) × 10^12 | 5.03 (M^−1) × 10^5 | 50 µg/mL | 25 µg/mL | 50 µg/mL | 25 µg/mL | 12.5 µg/mL | – | – | 3.00 (M^−1) × 10^5 | 1.10 ± 0.0044 mg/mL | 7.97 (M^−1) × 10^4 | – | – | – | –
Clc1ccc(N=Cc2ccc3ccccc3n2)cc1.Clc1ccc(N=Cc2ccc3ccccc3n2)cc1.O=[N+]([O-])[O-].[Ag+] [Complex Q3, [Ag(L3)2]NO3] | 3.93 (M^−1) × 10^4 | 3.93 (M^−1S^−1) × 10^12 | 9.17 (M^−1) × 10^5 | 50 µg/mL | 25 µg/mL | 50 µg/mL | 50 µg/mL | 12.5 µg/mL | – | – | 15.7 (M^−1) × 10^5 | 4.75 ± 0.0042 mg/mL | 5.11 (M^−1) × 10^4 | – | – | – | –
C(=NCc1cccs1)c1ccc2ccccc2n1.C(=NCc1cccs1)c1ccc2ccccc2n1.[Ag+].[O-][Cl+3]([O-])([O-])[O-] [Complex Q10, [Ag(L5)2]ClO4] | 2.98 (M^−1) × 10^4 | 2.98 (M^−1S^−1) × 10^12 | 9.61 (M^−1) × 10^5 | 1000 µg/mL | 6.25 µg/mL | 100 µg/mL | 25 µg/mL | 1.6 µg/mL | – | – | 5.00 (M^−1) × 10^5 | 0.98 ± 0.055 mg/mL | 8.01 (M^−1) × 10^4 | – | – | – | 961000 M⁻¹
